Experimental data reported in article PMC6540285, “Evaluation of Protein Kinase Inhibitors with PLK4 Cross-Over Potential in a Pre-Clinical Model of Cancer” (International Journal of Molecular Sciences, 2019).

What was measured:
ABL1 G250E = ABL1 G250E (Homo sapiens, UniProt P00519, G250E); test: SelectScreen kinase profiling, ZLYTE; format: biochemical
ABL2 (Arg) = ABL2 (Arg) (Homo sapiens, UniProt P42684); test: SelectScreen kinase profiling, ZLYTE; format: biochemical
ACVR1 (ALK2) R206H = ACVR1 (ALK2) R206H (Homo sapiens, UniProt Q04771, R206H); test: SelectScreen kinase profiling, LanthaScreen binding
AMPK (A2/B1/G3) = AMPK (A2/B1/G3) (Homo sapiens, UniProt P54646); test: SelectScreen kinase profiling, ZLYTE; format: biochemical
AMPK (A2/B2/G1) = AMPK (A2/B2/G1) (Homo sapiens, UniProt P54646); test: SelectScreen kinase profiling, LanthaScreen binding
AMPK A2/B1/G1 = AMPK A2/B1/G1 (Homo sapiens, UniProt P54646); test: SelectScreen kinase profiling, ZLYTE; format: biochemical; details: AMPK A2/B1/G1, 10 µM
AURKA (Aurora A) = AURKA (Aurora A) (Homo sapiens, UniProt O14965); test: SelectScreen kinase profiling, ZLYTE; format: biochemical
BMPR1B (ALK6) = BMPR1B (ALK6) (Homo sapiens, UniProt O00238); test: SelectScreen kinase profiling, LanthaScreen binding
BMPR1B (ALK6), sequence (O00238 14-502): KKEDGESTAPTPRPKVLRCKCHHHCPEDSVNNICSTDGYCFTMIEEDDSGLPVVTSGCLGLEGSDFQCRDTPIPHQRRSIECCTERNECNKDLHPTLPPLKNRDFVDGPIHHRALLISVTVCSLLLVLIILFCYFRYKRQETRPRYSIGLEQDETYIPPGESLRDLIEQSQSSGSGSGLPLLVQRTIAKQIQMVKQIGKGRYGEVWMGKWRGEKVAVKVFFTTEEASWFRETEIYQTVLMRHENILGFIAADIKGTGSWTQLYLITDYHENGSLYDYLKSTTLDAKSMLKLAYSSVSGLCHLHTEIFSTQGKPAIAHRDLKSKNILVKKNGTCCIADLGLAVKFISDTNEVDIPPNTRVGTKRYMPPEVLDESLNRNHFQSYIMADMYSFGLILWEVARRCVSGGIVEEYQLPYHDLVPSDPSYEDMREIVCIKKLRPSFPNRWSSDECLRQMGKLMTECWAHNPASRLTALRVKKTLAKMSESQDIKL

BRAF V599E = BRAF V599E (Homo sapiens, UniProt P15056, V600E); test: SelectScreen kinase profiling, ZLYTE; format: biochemical
BRSK1 (SAD1) = BRSK1 (SAD1) (Homo sapiens, UniProt Q8TDC3); test: SelectScreen kinase profiling, ZLYTE; format: biochemical
BRSK2 = BRSK2 (Homo sapiens, UniProt Q8IWQ3); test: SelectScreen kinase profiling, LanthaScreen binding; details: BRSK2, 10 µM
CAMK2A (CaMKII alpha) = CAMK2A (CaMKII alpha) (Homo sapiens, UniProt Q9UQM7); test: SelectScreen kinase profiling, ZLYTE; format: biochemical
CAMK2A (CaMKII alpha), sequence (Q9UQM7 whole entry): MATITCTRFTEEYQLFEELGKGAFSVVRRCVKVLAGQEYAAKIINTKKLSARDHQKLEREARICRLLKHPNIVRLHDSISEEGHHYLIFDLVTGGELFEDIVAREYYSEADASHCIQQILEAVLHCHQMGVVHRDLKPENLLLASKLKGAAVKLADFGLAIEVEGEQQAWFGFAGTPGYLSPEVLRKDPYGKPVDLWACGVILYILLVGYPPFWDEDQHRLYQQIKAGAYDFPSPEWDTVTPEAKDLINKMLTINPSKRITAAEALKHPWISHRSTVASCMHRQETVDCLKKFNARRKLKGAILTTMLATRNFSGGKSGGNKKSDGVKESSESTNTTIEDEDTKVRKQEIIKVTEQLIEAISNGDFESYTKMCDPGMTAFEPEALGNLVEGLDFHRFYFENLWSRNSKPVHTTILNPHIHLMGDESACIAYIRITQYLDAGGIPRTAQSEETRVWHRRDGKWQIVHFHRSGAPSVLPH

CAMK4 (CaMKIV) = CAMK4 (CaMKIV) (Homo sapiens, UniProt Q16566); test: SelectScreen kinase profiling, ZLYTE; format: biochemical
CAMKK1 (CAMKKA) = CAMKK1 (CAMKKA) (Homo sapiens, UniProt Q8N5S9); test: SelectScreen kinase profiling, LanthaScreen binding
CAMKK1 (CAMKKA), sequence (Q8N5S9 whole entry): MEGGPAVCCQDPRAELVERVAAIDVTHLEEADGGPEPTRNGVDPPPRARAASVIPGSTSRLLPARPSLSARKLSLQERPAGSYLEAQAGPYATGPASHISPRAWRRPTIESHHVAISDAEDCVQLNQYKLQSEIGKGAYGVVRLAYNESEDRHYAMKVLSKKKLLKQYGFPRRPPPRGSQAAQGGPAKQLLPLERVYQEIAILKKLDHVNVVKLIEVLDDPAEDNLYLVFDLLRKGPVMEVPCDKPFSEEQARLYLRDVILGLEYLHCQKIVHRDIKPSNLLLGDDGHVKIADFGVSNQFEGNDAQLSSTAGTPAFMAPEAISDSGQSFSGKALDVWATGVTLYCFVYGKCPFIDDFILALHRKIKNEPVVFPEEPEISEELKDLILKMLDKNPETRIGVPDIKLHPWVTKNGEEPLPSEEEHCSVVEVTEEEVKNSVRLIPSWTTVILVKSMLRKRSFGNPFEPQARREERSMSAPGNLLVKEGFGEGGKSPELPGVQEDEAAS

CDK8/cyclin C = CDK8/cyclin C (Homo sapiens, UniProt P49336); test: as above
CDK8/cyclin C, sequence (P49336 whole entry): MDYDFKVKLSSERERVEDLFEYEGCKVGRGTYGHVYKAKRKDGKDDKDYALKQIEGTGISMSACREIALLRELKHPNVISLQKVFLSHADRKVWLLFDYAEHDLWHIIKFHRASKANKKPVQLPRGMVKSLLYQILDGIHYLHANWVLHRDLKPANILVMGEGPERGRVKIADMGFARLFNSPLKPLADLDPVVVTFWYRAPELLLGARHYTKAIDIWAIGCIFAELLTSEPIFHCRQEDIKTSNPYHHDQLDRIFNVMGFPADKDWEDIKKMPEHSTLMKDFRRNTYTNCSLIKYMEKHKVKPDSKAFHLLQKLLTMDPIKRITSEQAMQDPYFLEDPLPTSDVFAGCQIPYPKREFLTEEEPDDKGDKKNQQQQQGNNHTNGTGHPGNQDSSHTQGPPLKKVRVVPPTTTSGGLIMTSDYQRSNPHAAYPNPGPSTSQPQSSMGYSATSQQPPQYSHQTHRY
CDK8/cyclin C, sequence (P24863 whole entry partner): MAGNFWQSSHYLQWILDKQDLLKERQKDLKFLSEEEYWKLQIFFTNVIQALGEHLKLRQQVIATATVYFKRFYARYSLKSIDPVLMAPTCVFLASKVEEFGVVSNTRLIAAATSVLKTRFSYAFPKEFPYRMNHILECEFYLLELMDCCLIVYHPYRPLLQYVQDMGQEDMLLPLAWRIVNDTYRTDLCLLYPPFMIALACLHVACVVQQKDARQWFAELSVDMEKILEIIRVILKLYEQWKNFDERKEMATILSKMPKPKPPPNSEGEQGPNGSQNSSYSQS

CLK4 = CLK4 (Homo sapiens, UniProt Q9HAZ1); test: as above; details: CLK4, 10 µM
CSNK2A1 (CK2 alpha 1) = CSNK2A1 (CK2 alpha 1) (Homo sapiens, UniProt P68400); test: SelectScreen kinase profiling, ZLYTE; format: biochemical
ERN1 = ERN1 (Homo sapiens, UniProt O75460); test: SelectScreen kinase profiling, LanthaScreen binding; details: ERN1, 10 µM
FGFR1 = FGFR1 (Homo sapiens, UniProt P11362); test: SelectScreen kinase profiling, ZLYTE; format: biochemical; details: FGFR1, 10 µM
FGFR2 N549H = FGFR2 N549H (Homo sapiens, UniProt P21802, N549H); test: SelectScreen kinase profiling, ZLYTE; format: biochemical
FGFR2 N549H, sequence (P21802 22-821 N549H): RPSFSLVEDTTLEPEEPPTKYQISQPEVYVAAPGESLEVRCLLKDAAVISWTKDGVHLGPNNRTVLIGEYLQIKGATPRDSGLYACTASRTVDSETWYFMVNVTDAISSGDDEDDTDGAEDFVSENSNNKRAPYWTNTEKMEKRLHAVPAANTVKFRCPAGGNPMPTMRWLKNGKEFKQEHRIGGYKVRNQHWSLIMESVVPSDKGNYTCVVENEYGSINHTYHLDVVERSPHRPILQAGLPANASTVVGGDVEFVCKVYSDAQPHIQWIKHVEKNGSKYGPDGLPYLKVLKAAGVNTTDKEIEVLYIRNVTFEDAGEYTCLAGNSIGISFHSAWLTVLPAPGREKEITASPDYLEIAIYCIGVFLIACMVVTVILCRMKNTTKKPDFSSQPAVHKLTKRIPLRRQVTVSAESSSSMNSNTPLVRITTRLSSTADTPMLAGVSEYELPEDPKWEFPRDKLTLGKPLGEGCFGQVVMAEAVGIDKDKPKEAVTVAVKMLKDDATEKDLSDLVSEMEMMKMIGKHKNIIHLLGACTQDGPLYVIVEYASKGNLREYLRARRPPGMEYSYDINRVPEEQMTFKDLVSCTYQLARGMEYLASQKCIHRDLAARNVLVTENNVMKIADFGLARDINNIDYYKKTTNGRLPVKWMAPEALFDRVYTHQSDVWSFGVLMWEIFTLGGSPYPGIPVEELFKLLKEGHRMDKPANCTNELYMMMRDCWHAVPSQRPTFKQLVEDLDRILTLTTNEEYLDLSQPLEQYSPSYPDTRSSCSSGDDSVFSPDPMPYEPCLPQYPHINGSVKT

FLT3 D835Y = FLT3 D835Y (Homo sapiens, UniProt P36888, D835Y); test: SelectScreen kinase profiling, ZLYTE; format: biochemical
HIPK3 (YAK1) = HIPK3 (YAK1) (Homo sapiens, UniProt Q9H422); test: SelectScreen kinase profiling, ZLYTE; format: biochemical
IRAK4 = IRAK4 (Homo sapiens, UniProt Q9NWZ3); test: SelectScreen kinase profiling, ZLYTE; format: biochemical; details: IRAK4, 10 µM
JAK2 JH1 JH2 = biological target: T1, JAK2 JH1 JH2 (Homo sapiens, UniProt O60674); test: SelectScreen kinase profiling, ZLYTE; format: biochemical; details: JAK2 JH1 JH2, 10 µM
T1 construct: JAK2 JH1 JH2
T1 sequence (O60674 532-1132 limits assumed): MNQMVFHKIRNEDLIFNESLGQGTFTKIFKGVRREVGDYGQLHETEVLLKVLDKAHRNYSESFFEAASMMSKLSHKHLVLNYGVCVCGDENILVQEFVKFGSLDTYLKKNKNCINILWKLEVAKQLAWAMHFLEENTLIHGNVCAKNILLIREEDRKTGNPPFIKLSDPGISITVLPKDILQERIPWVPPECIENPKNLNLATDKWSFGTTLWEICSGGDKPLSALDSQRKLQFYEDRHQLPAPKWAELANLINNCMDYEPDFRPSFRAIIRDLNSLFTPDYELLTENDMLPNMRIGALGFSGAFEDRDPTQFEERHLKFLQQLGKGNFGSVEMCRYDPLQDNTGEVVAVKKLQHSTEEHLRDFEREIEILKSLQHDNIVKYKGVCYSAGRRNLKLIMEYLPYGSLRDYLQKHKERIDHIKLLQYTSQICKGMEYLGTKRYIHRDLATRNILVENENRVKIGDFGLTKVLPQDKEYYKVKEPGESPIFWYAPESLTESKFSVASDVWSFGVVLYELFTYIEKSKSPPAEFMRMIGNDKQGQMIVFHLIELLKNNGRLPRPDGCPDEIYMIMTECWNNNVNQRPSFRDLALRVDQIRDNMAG

KIT D820E = KIT D820E (Homo sapiens, UniProt P10721, D820E); test: SelectScreen kinase profiling, LanthaScreen binding
KIT T670E = KIT T670E (Homo sapiens, UniProt P10721, T670E); test: as above
KIT V559D = KIT V559D (Homo sapiens, UniProt P10721, V559D); test: SelectScreen kinase profiling, ZLYTE; format: biochemical
KIT V559D V654A = KIT V559D V654A (Homo sapiens, UniProt P10721, V559D/V654A); test: SelectScreen kinase profiling, ZLYTE; format: biochemical
MAP2K1 (MEK1) = MAP2K1 (MEK1) (Homo sapiens, UniProt Q02750); test: SelectScreen kinase profiling, ZLYTE; format: biochemical
MAP2K6 (MKK6) = MAP2K6 (MKK6) (Homo sapiens, UniProt P52564); test: SelectScreen kinase profiling, ZLYTE; format: biochemical
MAP4K3 (GLK) = MAP4K3 (GLK) (Homo sapiens, UniProt Q8IVH8); test: SelectScreen kinase profiling, LanthaScreen binding
MAP4K3 (GLK), sequence (Q8IVH8 whole entry): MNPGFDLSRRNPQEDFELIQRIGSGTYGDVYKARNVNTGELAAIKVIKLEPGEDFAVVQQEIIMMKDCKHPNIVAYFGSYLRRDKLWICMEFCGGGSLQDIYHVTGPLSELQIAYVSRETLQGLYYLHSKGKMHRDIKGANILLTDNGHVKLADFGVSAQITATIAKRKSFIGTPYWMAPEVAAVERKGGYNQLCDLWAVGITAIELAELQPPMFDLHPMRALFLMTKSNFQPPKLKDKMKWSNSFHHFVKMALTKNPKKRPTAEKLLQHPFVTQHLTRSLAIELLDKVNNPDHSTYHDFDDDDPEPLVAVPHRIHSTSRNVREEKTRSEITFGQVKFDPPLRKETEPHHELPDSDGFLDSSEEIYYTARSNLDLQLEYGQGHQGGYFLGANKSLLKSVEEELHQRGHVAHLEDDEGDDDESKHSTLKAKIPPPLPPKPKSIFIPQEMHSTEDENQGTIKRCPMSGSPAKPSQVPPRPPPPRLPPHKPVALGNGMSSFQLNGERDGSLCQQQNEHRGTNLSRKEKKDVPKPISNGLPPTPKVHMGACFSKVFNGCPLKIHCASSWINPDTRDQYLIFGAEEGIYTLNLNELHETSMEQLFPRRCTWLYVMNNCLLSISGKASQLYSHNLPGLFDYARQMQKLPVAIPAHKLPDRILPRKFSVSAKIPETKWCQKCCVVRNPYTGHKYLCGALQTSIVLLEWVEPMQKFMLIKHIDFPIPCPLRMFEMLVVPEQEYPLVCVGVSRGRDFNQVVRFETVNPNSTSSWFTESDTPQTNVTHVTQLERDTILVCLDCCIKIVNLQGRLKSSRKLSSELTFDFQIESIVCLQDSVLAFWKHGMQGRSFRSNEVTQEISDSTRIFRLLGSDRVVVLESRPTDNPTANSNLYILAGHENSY

MAPK12 (p38 gamma) = MAPK12 (p38 gamma) (Homo sapiens, UniProt P53778); test: SelectScreen kinase profiling, ZLYTE; format: biochemical
MAPK12 (p38 gamma), sequence (P53778 whole entry): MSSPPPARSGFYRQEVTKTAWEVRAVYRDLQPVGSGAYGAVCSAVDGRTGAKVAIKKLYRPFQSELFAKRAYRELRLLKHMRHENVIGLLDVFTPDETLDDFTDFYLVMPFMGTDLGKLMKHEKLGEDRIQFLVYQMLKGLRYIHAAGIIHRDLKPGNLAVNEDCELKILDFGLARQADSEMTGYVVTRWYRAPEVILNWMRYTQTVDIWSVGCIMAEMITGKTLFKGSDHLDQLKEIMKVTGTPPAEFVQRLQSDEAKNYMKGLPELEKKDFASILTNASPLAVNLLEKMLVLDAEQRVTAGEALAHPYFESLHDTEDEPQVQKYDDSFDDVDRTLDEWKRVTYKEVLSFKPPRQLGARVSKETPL

MAPKAPK5 (PRAK) = MAPKAPK5 (PRAK) (Homo sapiens, UniProt Q8IW41); test: SelectScreen kinase profiling, ZLYTE; format: biochemical
MUSK = MUSK (Homo sapiens, UniProt O15146); test: SelectScreen kinase profiling, ZLYTE; format: biochemical
NTRK1 (TRKA) = NTRK1 (TRKA) (Homo sapiens, UniProt P04629); test: SelectScreen kinase profiling, ZLYTE; format: biochemical
PRKACA (PKA) = PRKACA (PKA) (Homo sapiens, UniProt P17612); test: SelectScreen kinase profiling, ZLYTE; format: biochemical
SGKL (SGK3) = SGKL (SGK3) (Homo sapiens, UniProt Q96BR1); test: SelectScreen kinase profiling, ZLYTE; format: biochemical
SPHK2 = SPHK2 (Homo sapiens, UniProt Q9NRA0); test: SelectScreen kinase profiling, Adapta; format: biochemical; details: SPHK2, 10 µM
CYP2D6 = CYP2D6 (Homo sapiens, UniProt P10635); test: SelectScreen P450 Vivid biochemical assay; details: 10000nM; substrate EOMCC

SMILES: O=C(c1ccc(/C=C/c2n[nH]c3ccccc23)cc1)N1CCNCC1 [KW-2449]
- inhibition at 10 µM (ABL1 G250E): 100%
- inhibition at 10 µM (ABL2 (Arg)): 98%
- inhibition at 10 µM (ACVR1 (ALK2) R206H): 69%
- inhibition at 10 µM (AMPK (A2/B1/G3)): 96%
- inhibition at 10 µM (AMPK (A2/B2/G1)): 75%
- inhibition at 10 µM (AMPK A2/B1/G1): 99%
- inhibition at 10 µM (AURKA (Aurora A)): 98%
- inhibition at 10 µM (BMPR1B (ALK6)): 90%
- inhibition at 10 µM (BRAF V599E): 60%
- inhibition at 10 µM (BRSK1 (SAD1)): 99%
- inhibition at 10 µM (BRSK2): 7%
- inhibition at 10 µM (CAMK2A (CaMKII alpha)): 67%
- inhibition at 10 µM (CAMK4 (CaMKIV)): 52%
- inhibition at 10 µM (CAMKK1 (CAMKKA)): 69%
- inhibition at 10 µM (CDK8/cyclin C): 38%
- inhibition at 10 µM (CLK4): 84%
- inhibition at 10 µM (CSNK2A1 (CK2 alpha 1)): 18%
- inhibition at 10 µM (ERN1): 32%
- inhibition at 10 µM (FGFR1): 96%
- inhibition at 10 µM (FGFR2 N549H): 94%
- inhibition at 10 µM (FLT3 D835Y): 100%
- inhibition at 10 µM (HIPK3 (YAK1)): 53%
- inhibition at 10 µM (IRAK4): 77%
- inhibition at 10 µM (JAK2 JH1 JH2): 96%
- inhibition at 10 µM (KIT D820E): 81%
- inhibition at 10 µM (KIT T670E): 89%
- inhibition at 10 µM (KIT V559D): 91%
- inhibition at 10 µM (KIT V559D V654A): 77%
- inhibition at 10 µM (MAP2K1 (MEK1)): 72%
- inhibition at 10 µM (MAP2K6 (MKK6)): 79%
- inhibition at 10 µM (MAP4K3 (GLK)): 72%
- inhibition at 10 µM (MAPK12 (p38 gamma)): 23%
- inhibition at 10 µM (MAPKAPK5 (PRAK)): 87%
- inhibition at 10 µM (MUSK): 90%
- inhibition at 10 µM (NTRK1 (TRKA)): 98%
- inhibition at 10 µM (PRKACA (PKA)): 76%
- inhibition at 10 µM (SGKL (SGK3)): 52%
- inhibition at 10 µM (SPHK2): 7%
- % Inhibition 2D6 EOMCC (CYP2D6): 1%
